The values below come from patent publication US4759929A, “Novel treatment” (Cabinet Harle & Phelip, priority 1987, dated 1988).

Test [1] concerns mammalian cellular DNA polymerases. The conditions noted are these: known; cited from earlier work.
Test [2] has as its system Friend viruses and the plasma variant of Chirigos virus. The conditions noted are these: in vivo; cited from earlier work.
In test [3] the target is T1, LAV purified reverse transcriptase (Human immunodeficiency virus type 1 group M subtype B, UniProt P03367).
T1 construct: made in house
In words: Lineweaver-Burk kinetics, varying poly A oligo dT12-18 template primer concentration. Type of test: biochemical, Lymphadenopathy associated virus (LAV). Particulars: for HPA23 inhibition: LAV purified RT, FIG. 1 legend. Here is the method: The results of the Lineweaver-Burk plots of the effects of varying concentration of poly An oligo dT12-18 at two different HPA23 concentrations are summarized in FIG. 1. In the experimental conditions, kinetic enzymatic parameters are: KM=2.18 nM of polyA oligo dT, Vmax=0.02 pM of 3 HTMP incorporated sec^-1. […] The interaction of HPA23 with the template primer-enzyme complex should take place at the binding site of the template primer.
Lineweaver-Burk representation of the influence of poly A oligo T12-18 template concentration on the inhibition by HPA23 of LAV purified reverse transcriptase
A: picomoles of ^3 H TMP incorporated in five minutes at 37° C.
B: template primer concentration (OD ml^-1)
: control (no inhibition)
: inhibition dose corresponds to 65 percent HPA23 inhibition (19 μg/ml)
inhibition dose corresponds to 80 percent HPA23 inhibition (40 μg/ml)
Each plot-point is the mean of three experiments.

Test [4] deals with scrapie. The conditions noted are these: mice infected with scrapie; cited from earlier work.
Test [5] has as its target SAIDS virus reverse transcriptase (Simian retrovirus SRV-1, UniProt P04025). Kind of test: Reverse transcriptase assay, SAIDS virus. The test is classed as biochemical, Simian AIDS (SAIDS) virus. The conditions noted are these: for Percent inhibition / p. mole incorporated: SAIDS virus; for p. mole incorporated: control 0.43. Here is the method: Simian AIDS (SAIDS) virus producing cells were provided by Murray Gardner, M.D. and supernatants of cell cultures were concentrated using polyethylene glycol (PEG) 10 percent precipitation. The precipitate was purified on a 20 to 60 percent sucrose gradient (50,000 g, 2.5 hours). Reverse transcriptase assays (see legend Table I) were performed on each fraction from the collected gradient. Maximum RT activity was found at a density of 1.18.
Assay mixtures are indicated in the legend of Table I. The reaction was stopped by treating the mixtures with sodium pyrophosphate and trichloracetic acid. The results are given as picomoles of tritiated deoxyribonucleotides monophosphate incorporated into DNA after 1 hour at 37° C.
HPA 23 inhibition of reverse transcriptase of SAIDS virus and LAV.
Reaction mixture (50 μl) contains: Tris 50 mM pH 7.9, 5 mM MgCl2,
OD/ml Oligo dT 12-18, and 200 pM ^3 HTTP (25 Ci/mM).

SAIDS virus reverse transcriptase, sequence (P04025 913-1497): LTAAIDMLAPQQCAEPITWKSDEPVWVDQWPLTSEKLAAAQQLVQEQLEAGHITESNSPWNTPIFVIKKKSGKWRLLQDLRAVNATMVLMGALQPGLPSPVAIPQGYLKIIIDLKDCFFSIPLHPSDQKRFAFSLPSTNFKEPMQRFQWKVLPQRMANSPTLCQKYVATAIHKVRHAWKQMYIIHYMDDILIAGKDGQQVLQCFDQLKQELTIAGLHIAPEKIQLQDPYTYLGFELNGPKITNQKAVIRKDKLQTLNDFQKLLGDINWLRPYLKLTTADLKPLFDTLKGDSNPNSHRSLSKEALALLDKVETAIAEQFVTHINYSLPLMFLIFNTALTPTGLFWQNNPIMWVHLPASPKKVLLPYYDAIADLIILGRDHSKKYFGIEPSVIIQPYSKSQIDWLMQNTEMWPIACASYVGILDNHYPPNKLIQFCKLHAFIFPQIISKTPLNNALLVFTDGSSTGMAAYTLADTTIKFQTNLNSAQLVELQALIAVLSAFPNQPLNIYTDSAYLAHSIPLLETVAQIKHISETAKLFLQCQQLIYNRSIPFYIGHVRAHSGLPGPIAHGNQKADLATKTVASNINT

In the case of “Ammonium-9-antimonio-III-21-tungsto-VII-sodate [HPA 23]”, in test [1], the “inhibition of mammalian cellular DNA polymerases” value is on record as “strong inhibitor”. Besides, in test [2], the protection against leukemia entry is “protects”. The inhibition mechanism entry in test [3] (LAV RT, versus template primer poly A oligo dT12-18) is given as “competitive inhibition”; in test [5] (SAIDS (monkey) virus enzyme, kinetic studies), “competitive inhibition”. The HPA23 inhibition in test [3] (19 μg/ml) is 65%; in test [3] (40 μg/ml), 80%. Also, the “disease / incubation period” value in test [4] was “can prevent disease or prolong the incubation period”. The ID50 in test [5] (SAIDS virus RT, 1 hour at 37° C.) came to 1.1 µg/mL. Further, the Percent inhibition came out at 21% in test [5] (inhibitor 0.5 μg/ml); 35% in test [5] (inhibitor 1 μg/ml); 80% in test [5] (inhibitor 2.5 μg/ml); 94.5% in test [5] (inhibitor 5 μg/ml); 99.5% in test [5] (inhibitor 10 μg/ml); 100% in test [5] (inhibitor 25 μg/ml). Besides, the p. mole incorporated was found to be 0.34 p. mole in test [5] (inhibitor 0.5 μg/ml); 0.28 p. mole in test [5] (inhibitor 1 μg/ml); 0.09 p. mole in test [5] (inhibitor 2.5 μg/ml); 0.024 p. mole in test [5] (inhibitor 5 μg/ml); 0.0025 p. mole in test [5] (inhibitor 10 μg/ml); 0 p. mole in test [5] (inhibitor 25 μg/ml).
